Test results: publication PMC4053376, “Characterization of the Xiamenmycin Biosynthesis Gene Cluster in Streptomyces xiamenensis 318” (PLoS ONE, 2014)

Key:
[1] = target: T1, XimB (Streptomyces xiamenensis, UniProt U5PZQ3); experiment: membrane fraction, product […] by UPLC-Q-TOF-MS; type: biochemical; settings: 0.3 mM GPP, 0.5 mM 4HB, 5 mM MgSO4, 50 mM Tris-HCl pH 7.5, 30 °C
T1 construct: full-length 313 aa; N-terminal His tag, pET28a, E. coli BL21(DE3) membrane fraction; twelve predicted transmembrane helices
T1 sequence (U5PZQ3 1-313): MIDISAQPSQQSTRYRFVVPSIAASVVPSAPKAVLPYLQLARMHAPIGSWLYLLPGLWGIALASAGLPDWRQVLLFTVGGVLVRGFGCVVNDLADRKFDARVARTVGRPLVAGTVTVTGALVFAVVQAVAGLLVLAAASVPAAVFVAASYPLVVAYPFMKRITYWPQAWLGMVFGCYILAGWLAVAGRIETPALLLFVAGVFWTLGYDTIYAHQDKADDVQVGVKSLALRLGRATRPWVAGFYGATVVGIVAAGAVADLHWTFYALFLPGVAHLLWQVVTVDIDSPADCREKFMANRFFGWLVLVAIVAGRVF

[2] = target: T2, XimC (Streptomyces xiamenensis, UniProt U5Q2Q4); experiment: product 4HB by GC-MS; type: biochemical; settings: 50 mM Tris-HCl pH 7.5, 30 °C, 30 min
T2 construct: full-length 196 aa; N-terminal His6 tag, pET28a, E. coli BL21(DE3), Ni-NTA purified
T2 sequence (U5Q2Q4 entry or part of it): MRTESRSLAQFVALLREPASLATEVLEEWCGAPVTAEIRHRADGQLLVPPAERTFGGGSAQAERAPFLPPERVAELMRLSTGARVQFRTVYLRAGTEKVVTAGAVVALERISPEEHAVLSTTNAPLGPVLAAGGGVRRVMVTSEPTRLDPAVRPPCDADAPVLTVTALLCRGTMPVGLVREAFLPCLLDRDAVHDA

## O=C(O)c1ccc(O)cc1 [4-hydroxybenzoic acid]
[1]
  membrane fraction, product 2 by UPLC-Q-TOF-MS: membrane fraction containing XimB was incubated with 4HB and GPP

## C=C(O[C@@H]1C=C(C(=O)O)C=C[C@H]1O)C(=O)O [chorismate]
[2]
  product 4HB by GC-MS: incubated with chorismate, the formation of 4HB was observed and confirmed by GC-MS

## CC(C)=CCC/C(C)=C/COP(=O)(O)OP(=O)(O)O [geranyl diphosphate]
[1]
  membrane fraction, product 2 by UPLC-Q-TOF-MS: membrane fraction containing XimB was incubated with 4HB and GPP
